The values that follow come from ChEMBL document CHEMBL5380778, “Structure-Directed Discovery of Potent Soluble Epoxide Hydrolase Inhibitors for the Treatment of Inflammatory Diseases” (J Med Chem, 2023).

pIC50: −log10 of the molar value.

In experiment [1] the target is T1, Bifunctional epoxide hydrolase 2 (Mus musculus, UniProt P34914).
T1 sequence (P34914 whole entry): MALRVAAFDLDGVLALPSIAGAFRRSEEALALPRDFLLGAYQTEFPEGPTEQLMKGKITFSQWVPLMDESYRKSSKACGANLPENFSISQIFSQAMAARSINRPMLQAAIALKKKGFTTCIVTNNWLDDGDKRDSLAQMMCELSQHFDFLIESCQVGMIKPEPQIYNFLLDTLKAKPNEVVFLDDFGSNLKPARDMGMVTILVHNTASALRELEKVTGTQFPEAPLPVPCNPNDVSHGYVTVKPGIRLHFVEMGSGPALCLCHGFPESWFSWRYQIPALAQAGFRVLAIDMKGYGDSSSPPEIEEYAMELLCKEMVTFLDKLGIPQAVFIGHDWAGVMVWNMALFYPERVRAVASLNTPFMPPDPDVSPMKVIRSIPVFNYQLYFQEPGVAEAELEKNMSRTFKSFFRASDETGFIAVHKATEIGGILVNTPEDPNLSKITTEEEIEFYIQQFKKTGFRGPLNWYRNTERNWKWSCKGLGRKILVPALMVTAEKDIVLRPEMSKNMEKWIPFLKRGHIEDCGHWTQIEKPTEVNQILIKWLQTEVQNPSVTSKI
Description: Inhibition of recombinant mouse soluble epoxide hydrolase using PHOME as substrate assessed as 6-methoxynaphthaldehyde product formation preincubated with compound for 10 mins followed by substrate addition and measured by fluorescence based analysis.

Experiment [2] concerns the target T2, Bifunctional epoxide hydrolase 2 (Homo sapiens, UniProt P34913).
T2 sequence (P34913 whole entry): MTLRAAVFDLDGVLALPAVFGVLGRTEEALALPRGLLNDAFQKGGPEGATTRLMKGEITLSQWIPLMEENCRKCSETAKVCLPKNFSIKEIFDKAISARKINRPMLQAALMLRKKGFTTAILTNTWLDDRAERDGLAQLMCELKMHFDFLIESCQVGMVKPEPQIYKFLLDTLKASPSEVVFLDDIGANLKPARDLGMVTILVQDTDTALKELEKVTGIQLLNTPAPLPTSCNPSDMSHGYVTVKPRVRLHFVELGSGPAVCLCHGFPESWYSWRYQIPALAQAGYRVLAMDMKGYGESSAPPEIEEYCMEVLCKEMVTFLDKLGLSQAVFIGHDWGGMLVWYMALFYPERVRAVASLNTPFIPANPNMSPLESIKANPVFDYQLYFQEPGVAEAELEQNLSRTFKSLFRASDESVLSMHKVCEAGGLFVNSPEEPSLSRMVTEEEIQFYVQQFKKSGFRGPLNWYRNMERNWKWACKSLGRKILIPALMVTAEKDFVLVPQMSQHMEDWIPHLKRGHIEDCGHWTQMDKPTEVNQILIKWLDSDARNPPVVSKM
Description: Inhibition of recombinant human soluble epoxide hydrolase using PHOME as substrate assessed as 6-methoxynaphthaldehyde product formation preincubated with compound for 10 mins followed by substrate addition and measured by fluorescence based analysis.

Broadly, the pIC50 is the IC50 on a negative log10 scale, so that one unit is a factor of ten. `C[C@]12C[C@@H]3C[C@](C)(C1)C[C@@](NC(=O)Nc1ccc(C(=O)NC4CCC(C(=O)N5CCC(CCO)CC5)CC4)cc1F)(C3)C2` (stereo partly specified): the pIC50 in experiment [1] was 9.28; in experiment [2], 7.80.
For `C[C@]12C[C@@H]3C[C@](C)(C1)C[C@@](NC(=O)Nc1ccc(C(=O)NC4CCC(C(=O)NC(CO)CO)CC4)cc1F)(C3)C2` (stereo partly specified), the pIC50 in experiment [1] was 9.26; in experiment [2], 9.04.
Turning to `CN(C)CCN1CCC(CC(=O)N2CCCN(Cc3ccc(NC(=O)N[C@@]45C[C@@H]6C[C@@](C)(C[C@@](C)(C6)C4)C5)c(F)c3)CC2)CC1`, the figures for the pIC50 in experiment [1] and in experiment [2] were 9.17 and 8.59, respectively.
Turning to `CC(O)CNC(=O)C1CCN(C(=O)c2ccc(NC(=O)N[C@@]34C[C@@H]5C[C@@](C)(C[C@@](C)(C5)C3)C4)c(F)c2)CC1` (stereo partly specified), the pIC50 was 9.74 in experiment [1] and 8.35 in experiment [2].
Taken in the same sequence, the figures for `C[C@]12C[C@@H]3C[C@](C)(C1)C[C@@](NC(=O)Nc1ccc(CN4CCCC(C(=O)NC(CO)(CO)CO)C4)cc1F)(C3)C2` (stereo partly specified) were 9.49 and 9.85.
On the same counts, the results for `C[C@]12C[C@@H]3C[C@](C)(C1)C[C@@](NC(=O)Nc1ccc(CN4CCCC(C(=O)N5CCN(CCO)CC5)C4)cc1F)(C3)C2` (stereo partly specified) are 9.26 and 9.01.
Taken in the same sequence, the figures for `C[C@]12C[C@@H]3C[C@](C)(C1)C[C@@](NC(=O)Nc1ccc(C(=O)NC4CCC(C(N)=O)CC4)cc1F)(C3)C2` (stereo partly specified) were 9.46 and 9.08.
Consider `CCC(C)C(=O)N1CCC(CC(=O)N2CCCN(Cc3ccc(NC(=O)N[C@@]45C[C@@H]6C[C@@](C)(C[C@@](C)(C6)C4)C5)c(F)c3)CC2)CC1` (stereo partly specified), for which the results for the negative logarithm of the IC50 (pIC50) in experiment [1] and in experiment [2] were 9.80 and 9.11, respectively.
As to `C[C@]12C[C@@H]3C[C@](C)(C1)C[C@@](NC(=O)Nc1ccc(CN4CCCC(C(=O)N5CCCN(C(=O)C6CC6)CC5)C4)cc1F)(C3)C2` (stereo partly specified), the pIC50 in experiment [1] is 9.10; in experiment [2] it was 9.38.
Taken in the same sequence, the figures for `CCN(CC)C(=O)C1CCCN(C(=O)c2ccc(NC(=O)N[C@]34C[C@@H]5C[C@@](C)(C[C@@](C)(C5)C3)C4)c(F)c2)C1` (stereo partly specified) were 9.42 and 9.46.
As for `C[C@]12C[C@@H]3C[C@](C)(C1)C[C@@](NC(=O)Nc1ccc(C(=O)NC4CCC(C(=O)N(CCO)CCO)CC4)cc1F)(C3)C2` (stereo partly specified), the results for the pIC50 in experiment [1] and in experiment [2] were 9.64 and 8.53, respectively.
On the same counts, the results for `C[C@]12C[C@@H]3C[C@](C)(C1)C[C@@](NC(=O)Nc1ccc(CN4CCC(C(=O)NC(CO)(CO)CO)CC4)cc1F)(C3)C2` are 9.92 and 8.19.
On to `COC(=O)N1CCC(CC(=O)N2CCCN(Cc3ccc(NC(=O)N[C@@]45C[C@@H]6C[C@@](C)(C[C@@](C)(C6)C4)C5)c(F)c3)CC2)CC1`, for which the negative-log IC50 (pIC50) in experiment [1] is 9.39; in experiment [2], 8.96.
Taken in the same sequence, the figures for `C[C@]12C[C@@H]3C[C@](C)(C1)C[C@@](NC(=O)Nc1ccc(CN4CCCC(C(=O)N(CCO)CCO)C4)cc1F)(C3)C2` (stereo partly specified) were 9.54 and 9.55.
Taken in the same sequence, the figures for `C[C@]12C[C@@H]3C[C@](C)(C1)C[C@@](NC(=O)Nc1ccc(CN4CCCN(C(=O)CC5CCN(CCO)CC5)CC4)cc1F)(C3)C2` were 9.21 and 8.33.
`C[C@]12C[C@@H]3C[C@](C)(C1)C[C@@](NC(=O)Nc1ccc(C(=O)NC4CCC(C(=O)NC(CO)(CO)CO)CC4)cc1F)(C3)C2` (stereo partly specified): the results for the pIC50 in experiment [1] and in experiment [2] were 9.92 and 9.46, respectively.
On the same counts, the results for `C=C(C)C(=O)N1CCCN(C(=O)C2CCCN(Cc3ccc(NC(=O)N[C@@]45C[C@@H]6C[C@@](C)(C[C@@](C)(C6)C4)C5)c(F)c3)C2)CC1` (stereo partly specified) are 8.89 and 9.05.
Taken in the same sequence, the figures for `C[C@]12C[C@@H]3C[C@](C)(C1)C[C@@](NC(=O)Nc1ccc(CN4CCCC(C(=O)NC(CO)CO)C4)cc1F)(C3)C2` (stereo partly specified) were 9.46 and 9.55.
Taken in the same sequence, the figures for `CCC(=O)N1CCCN(C(=O)C2CCCN(C(=O)c3ccc(NC(=O)N[C@@]45C[C@@H]6C[C@@](C)(C[C@@](C)(C6)C4)C5)c(F)c3)C2)CC1` (stereo partly specified) were 9.24 and 9.25.
With `CC(O)CNC(=O)C1CCCN(C(=O)c2ccc(NC(=O)N[C@]34C[C@@H]5C[C@@](C)(C[C@@](C)(C5)C3)C4)c(F)c2)C1` (stereo partly specified), the pIC50 in experiment [1] is 9.64; in experiment [2], 9.55.
Regarding `C[C@]12C[C@@H]3C[C@](C)(C1)C[C@@](NC(=O)Nc1ccc(C(=O)N4CCCC(C(=O)O)C4)cc1F)(C3)C2` (stereo partly specified), the pIC50 in experiment [1] is 8.89; in experiment [2] it was 8.34.
On the same counts, the results for `CCC(C)C(=O)N1CCCN(C(=O)C2CCCN(C(=O)c3ccc(NC(=O)N[C@@]45C[C@@H]6C[C@@](C)(C[C@@](C)(C6)C4)C5)c(F)c3)C2)CC1` (stereo partly specified) are 9.05 and 8.85.
Turning to `CCN(CC)C(=O)C1CCCN(Cc2ccc(NC(=O)N[C@@]34C[C@@H]5C[C@@](C)(C[C@@](C)(C5)C3)C4)c(F)c2)C1` (stereo partly specified), the pIC50 is 9.25 in experiment [1] and 9.46 in experiment [2].
Regarding `C=CC(=O)N1CCCN(C(=O)C2CCCN(Cc3ccc(NC(=O)N[C@@]45C[C@@H]6C[C@@](C)(C[C@@](C)(C6)C4)C5)c(F)c3)C2)CC1` (stereo partly specified), the pIC50 was 8.96 in experiment [1] and 9.38 in experiment [2].
Turning to `CCN(CC)CCN1CCC(CC(=O)N2CCCN(Cc3ccc(NC(=O)N[C@@]45C[C@@H]6C[C@@](C)(C[C@@](C)(C6)C4)C5)c(F)c3)CC2)CC1`, the pIC50 in experiment [1] is 8.86; in experiment [2], 8.68.
On the same counts, the results for `CN(C)C(=O)C1CCCN(Cc2ccc(NC(=O)N[C@@]34C[C@@H]5C[C@@](C)(C[C@@](C)(C5)C3)C4)c(F)c2)C1` (stereo partly specified) are 9.92 and 9.15.
On to `CCC(C)C(=O)N1CCCN(C(=O)C2CCCN(Cc3ccc(NC(=O)N[C@@]45C[C@@H]6C[C@@](C)(C[C@@](C)(C6)C4)C5)c(F)c3)C2)CC1` (stereo partly specified), for which the negative-log IC50 (pIC50) in experiment [1] is 9.21; in experiment [2] it was 9.60.
Regarding `C[C@]12C[C@@H]3C[C@](C)(C1)C[C@](NC(=O)Nc1ccc(C(=O)N4CCCC(C(=O)NCCO)C4)cc1F)(C3)C2` (stereo partly specified), the pIC50 in experiment [1] is 9.82; in experiment [2], 9.46.
On the same counts, the results for `CC(O)CNC(=O)C1CCCN(Cc2ccc(NC(=O)N[C@@]34C[C@@H]5C[C@@](C)(C[C@@](C)(C5)C3)C4)c(F)c2)C1` (stereo partly specified) are 9.24 and 9.55.
On the same counts, the results for `C[C@]12C[C@@H]3C[C@](C)(C1)C[C@@](NC(=O)Nc1ccc(C(=O)N4CCC(C(=O)NCCO)CC4)cc1F)(C3)C2` are 9.59 and 8.46.
Taken in the same sequence, the figures for `CC(=O)N1CCC(CC(=O)N2CCCN(Cc3ccc(NC(=O)N[C@@]45C[C@@H]6C[C@@](C)(C[C@@](C)(C6)C4)C5)c(F)c3)CC2)CC1` were 9.96 and 9.31.
With `CCC(=O)N1CCC(CC(=O)N2CCCN(C(=O)c3ccc(NC(=O)N[C@@]45C[C@@H]6C[C@@](C)(C[C@@](C)(C6)C4)C5)c(F)c3)CC2)CC1`, the figures for the pIC50 in experiment [1] and in experiment [2] were 9.41 and 9.05, respectively.
With `C[C@]12C[C@@H]3C[C@](C)(C1)C[C@@](NC(=O)Nc1ccc(CN4CCC(C(=O)N(CCO)CCO)CC4)cc1F)(C3)C2`, the pIC50 in experiment [1] is 9.26; in experiment [2], 8.17.
Take `CC(O)CNC(=O)C1CCN(Cc2ccc(NC(=O)N[C@@]34C[C@@H]5C[C@@](C)(C[C@@](C)(C5)C3)C4)c(F)c2)CC1` (stereo partly specified): the pIC50 is 9.33 in experiment [1] and 8.22 in experiment [2].
On the same counts, the results for `C[C@]12C[C@@H]3C[C@](C)(C1)C[C@@](NC(=O)Nc1ccc(CN4CCCC(C(=O)O)C4)cc1F)(C3)C2` (stereo partly specified) are 9.21 and 8.64.
On to `C[C@]12C[C@@H]3C[C@](C)(C1)C[C@@](NC(=O)Nc1ccc(CN4CCC(C(=O)NC(CO)CO)CC4)cc1F)(C3)C2`, for which the pIC50 is 8.65 in experiment [1] and 7.50 in experiment [2].
Take `CC(CN(C)C)N1CCC(CC(=O)N2CCCN(C(=O)c3ccc(NC(=O)N[C@@]45C[C@@H]6C[C@@](C)(C[C@@](C)(C6)C4)C5)c(F)c3)CC2)CC1` (stereo partly specified): the pIC50 in experiment [1] was 9.10; in experiment [2], 7.71.
On the same counts, the results for `C=C(C)C(=O)N1CCC(CC(=O)N2CCCN(C(=O)c3ccc(NC(=O)N[C@@]45C[C@@H]6C[C@@](C)(C[C@@](C)(C6)C4)C5)cc3)CC2)CC1` are 9.89 and 9.00.
